# Test system: CD8+ T cells of healthy HLA-A*24 donors
# Experiment: In vitro immunogenicity for MHC class I presented peptides (aAPC priming, A*2402 multimer staining)
# Format: cell-based, human
# Settings: in vitro priming of CD8+ T cells with peptide-loaded HLA-A*2402/anti-CD28 beads, three stimulation cycles
# Method: CD8 T cells were either directly enriched from the leukapheresis product or PBMCs (peripheral blood mononuclear cells) were isolated first by using standard gradient separation medium (PAA, Cölbe, Germany). Isolated CD8 lymphocytes or PBMCs were incubated until use in T-cell medium (TCM) consisting of RPMI-Glutamax (Invitrogen, Karlsruhe, Germany) supplemented with 10% heat inactivated human AB serum (PAN-Biotech, Aidenbach, Germany), 100 U/ml Penicillin/100 μg/ml Streptomycin (Cambrex, Cologne, Germany), 1 mM sodium pyruvate (CC Pro, Oberdorla, Germany), 20 μg/ml Gentamycin (Cambrex). […] Isolation of CD8+ lymphocytes was performed by positive selection using CD8 MicroBeads (Miltenyi Biotec, Bergisch-Gladbach, Germany).
# 800.000 beads/200 μl were coated in 96-well plates in the presence of 600 ng biotin anti-CD28 plus 200 ng relevant biotin-pMHC (high density beads). Stimulations were initiated in 96-well plates by co-incubating 1×10^6 CD8+ T cells with 2×10^5 washed coated beads in 200 μl TCM supplemented with 5 ng/ml IL-12 (PromoCell) for 3-4 days at 37° C. […] Peptide specific cells were calculated as percentage of total CD8+ cells. […] In vitro priming of specific multimer+ CD8+ lymphocytes was detected by appropriate gating and by comparing to negative control stimulations.
substance,measurement,setting,value
1 (FYISPVNKL; listed as Homo sapiens) [compound 1],Positive donors/donors tested [%],among evaluable donors,100%
same,Positive wells/wells tested [%],among evaluable wells,50%

# Source: patent US20110229505A1, “Methods for the diagnosis and treatment of cancer based on AVL9” (IMMATICS BIOTECHNOLOGIES GMBH, priority 2010, published 2011)
